Results reported in article PMC12481576, “Barbituric Acid Derivatives as Covalent Inhibitors of Leishmania braziliensis Dihydroorotate Dehydrogenase” (Journal of Medicinal Chemistry, 2025).
Where “and” joins values, the source holds several entries; their conditions need not be identical. Equal values may be shown once. Read-outs that look alike come from different tables or passages of the source.

Experiments:
[1] = for Remarks (mouse microsomal stability study): NCF = no cofactor control
[2] = Parallel artificial membrane permeability assay (PAMPA)
Description: Solutions of the compounds were prepared in duplicate by diluting the stock solutions (10 mM) in phosphate buffered saline (PBS) pH 7.4 at a final concentration of 10 μM (5% DMSO). The solutions diluted in PBS pH 7.4 were then added to the donor portion of the plate (300 μL/well), while in the acceptor portion PBS pH 7.4 (200 μL/well) was added. The two portions of the plate were then coupled, and the system was incubated for 6 h at room temperature. Samples of the initial donor solution (T0) were collected at the beginning (T0) and stored at 5 °C. The final concentrations of compounds in the donor, acceptor and T0 wells were quantified by LC-MS/MS.

LbDHODH = LbDHODH (Leishmania braziliensis, UniProt E9AI53); test: biochemical
Sequence of LbDHODH (E9AI53 entry or part of it): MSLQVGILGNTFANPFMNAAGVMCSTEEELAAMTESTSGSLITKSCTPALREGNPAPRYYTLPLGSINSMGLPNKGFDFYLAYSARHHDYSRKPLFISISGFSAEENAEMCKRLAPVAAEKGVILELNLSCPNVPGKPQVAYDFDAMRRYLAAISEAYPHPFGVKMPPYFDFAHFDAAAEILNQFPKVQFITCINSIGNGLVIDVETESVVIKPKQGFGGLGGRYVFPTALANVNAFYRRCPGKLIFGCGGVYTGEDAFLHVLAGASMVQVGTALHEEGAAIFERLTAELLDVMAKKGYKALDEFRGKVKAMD
Summary of the method: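 Screened at 100 μM with and without 4-h enzyme preincubation; DCIP reduction during DHO oxidation read at 610 nm every 3 s for 60 s in 50 mM Tris pH 8.15, 150 mM KCl, 0.1% Triton X-100, triplicate, 5% DMSO control. kinact/KI taken as slope of kobs versus inhibitor concentration (initial linear region).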

[3] = system: Leishmania braziliensis promastigotes; test: Leishmanicidal activity, promastigote growth (SYBR Green, 72 h); assay type: cell-based, Leishmania (V.) braziliensis (MHOM/BR/1975/M2904); conditions: L. braziliensis promastigotes, max 200 μM
Summary of the method: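 Promastigotes seeded at 4 × 10^6 parasites/mL with compounds in decreasing concentrations up to 200 μM, 0.5% DMSO final, 72 h.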

[4] = Cell viability / cytotoxicity assay (PrestoBlue, 72 h); assay type: cell-based; conditions: human; THP-1 cell line, 72 h, max 200 μM; read-out: CC50
Summary of the method: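 PMA-differentiated THP-1 cells (150 ng/mL PMA, 48 h; then 24 h in fresh medium) were exposed to compounds in serial dilution from 200 μM for 72 h at 37 °C, 5% CO2. Viability was read by PrestoBlue fluorescence (ex 560/em 590 nm) after 2 h.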

in vitro = conditions: microsomes; for microsomal CLint at 1 μM / remaining at 5 min, 1 μM: male, CD1, mouse; for remaining at 5 min, 1 μM / remaining at 10 min, 1 µM / remaining at 20 min, 1 µM / remaining at 0.5 h, 1 µM / remaining at 1 h, 1 µM: pH 7.4, % Remaining; for remaining at 5 min, 1 μM: T=5 min; for remaining at 10 min, 1 µM / remaining at 20 min, 1 µM / remaining at 0.5 h, 1 µM / remaining at 1 h, 1 µM: mouse; for remaining at 10 min, 1 µM: T=10 min; for remaining at 20 min, 1 µM: T=20 min; for remaining at 0.5 h, 1 µM: T=30 min, 30 min; for remaining at 1 h, 1 µM: T=60 min, 60 min
[5] = Mouse liver microsome stability in the absence of cofactors (NCF); conditions: mouse, microsomes, pH 7.4, % Remaining, T=60 NCF, 1 µM, 60 min, no cofactor (NCF)
[6] = mouse liver microsomes, 0.4 mg/ml, 1 µM
[7] = 0 h, pH 8.15, read-out: LbDHODH Activity±SD (%)
[8] = 4 h, pH 8.15, read-out: LbDHODH Activity±SD (%)
[9] = IC50 0 h, LbDHODH, without preincubation
[10] = IC50 4 h, LbDHODH, 4-h preincubation
[11] = read-out: Single dose (0h) % activity
[12] = read-out: Single dose (4h) % activity
[13] = n=1, mouse liver microsomes, n=1
[14] = n=2, mouse liver microsomes, n=2
[15] = average of n=2, 10µM, PBS pH 7.4/7.4, 6h at room temperature

## O=C1NC(=O)C(=Cc2ccc(O)c([N+](=O)[O-])c2)C(=O)N1 [2d, 5-(4-Hydroxy-3-nitrobenzylidene)pyrimidine-2,4,6(1H,3H,5H)-trione]
[1]; [6]
  Remarks (mouse microsomal stability study): Poor detection sensitivity/Compound might be unstable in assay matrix
[2]; 10µM, PBS pH 7.4/7.4, 6h at room temperature, LC-MS/MS
  Remarks (PAMPA): Poor detection sensitivity/Compound might be unstable in assay matrix
LbDHODH; [7]
  activity at 0.390625 µM: 99 ± 9%
  activity at 0.78125 µM: 75 ± 6%
  activity at 1.5625 µM: 60 ± 5%
  activity at 3.125 µM: 46 ± 5%
  activity at 6.25 µM: 25 ± 2%
  activity at 12.5 µM: 13 ± 1%
  activity at 25 µM: 11 ± 3%
  activity at 50 µM: 8 ± 1%
  activity at 100 µM: 6 ± 1%
  activity at 200 µM: 9 ± 4%
  activity at 400 µM: 6 ± 2%
LbDHODH; [8]
  activity at 0.390625 µM: 75 ± 7%
  activity at 0.78125 µM: 76 ± 8%
  activity at 1.5625 µM: 72 ± 11%
  activity at 3.125 µM: 71 ± 6%
  activity at 6.25 µM: 57 ± 7%
  activity at 12.5 µM: 52 ± 6%
  activity at 25 µM: 49 ± 7%
  activity at 50 µM: 39 ± 7%
  activity at 100 µM: 28 ± 3%
  activity at 200 µM: 21 ± 8%
  activity at 400 µM: 12 ± 4%
LbDHODH; [9]
  IC50: 3 ± 1 µM
LbDHODH; [10]
  IC50: 13 ± 2 µM
LbDHODH; [11]
  activity at 100 µM: 5 ± 2%
LbDHODH; [12]
  activity at 100 µM: 16 ± 3%
[3]; Leishmania braziliensis
  EC50: 152 ± 28 µM
[4]
  CC50 at 72 h: > 200 µM

## O=C1NC(=O)C(=Cc2ccc(-c3ccccc3F)[nH]2)C(=O)N1 [2h, 5-((5-(2-Fluorophenyl)-1H-pyrrol-2-yl)methylene)pyrimidine-2,4,6(1H,3H,5H)-trione]
[1]; mouse liver microsomes (CD1 male), 0.4 mg/ml protein, test conc 1 µM, average of n=1 and n=2
  Calculated T-half (min), Average: 1.7 min
[1]; mouse liver microsomes (CD1 male), 0.4 mg/ml protein, test conc 1 µM, replicate n=1
  Calculated T-half (min), n=1: 1.70 min and 1.7 min
[1]; mouse liver microsomes (CD1 male), 0.4 mg/ml protein, test conc 1 µM, replicate n=2
  Calculated T-half (min), n=2: 1.71 min and 1.7 min
[1]; mouse liver microsomes, 0.4 mg/ml, 1 µM, average, limited to T Half range 3.00 - […]
  Modified T-half (min), Average: <3.0 min
[1]; [6]
  Remarks (mouse microsomal stability study): Very fast metabolism; Low NCF
[1]; mouse liver microsomes, NADPH, 1 μM
  mouse liver microsomes T-half: <3.0 min
In vitro; pH 7.4
  microsomal CLint at 1 μM: > 578 µL/min/mg
In vitro; [13]
  remaining at 5 min, 1 μM: 5.9%
  remaining at 10 min, 1 µM: 1.7%
  remaining at 20 min, 1 µM: 0.7%
  remaining at 0.5 h, 1 µM: 0.554%
  remaining at 1 h, 1 µM: 0.158%
In vitro; [14]
  remaining at 5 min, 1 μM: 5.1%
  remaining at 10 min, 1 µM: 1.7%
  remaining at 20 min, 1 µM: 0.7%
  remaining at 0.5 h, 1 µM: 0.554%
  remaining at 1 h, 1 µM: 0.16%
In vitro; pH 7.4, mouse liver microsomes CLint, app, mouse liver microsomes, NADPH, 1 μM
  microsomal CLint at 1 μM: > 578 µL/min/mg
[2]; PAMPA, pH 7.4, % Recovery n=1, replicate n=1, 10µM, PBS pH 7.4/7.4, 6h at room temperature
  recovery at 6 h, 10 µM: 38%
[2]; PAMPA, pH 7.4, % Recovery n=2, replicate n=2, 10µM, PBS pH 7.4/7.4, 6h at room temperature
  recovery at 6 h, 10 µM: 43.3%
[2]; PAMPA, pH 7.4, Avg % Recovery, average of n=2, 10µM, PBS pH 7.4/7.4, 6h at room temperature
  recovery at 6 h, 10 µM: 40.6%
[2]; PAMPA, pH 7.4, permeability, PBS pH 7.4, 10 μM, 6 h
  Papp: 1.54 ×10⁻⁶ cm/s
[2]; [15]
  Avg Log Pe (cm/sec): -5.8 cm/sec and -5.83 cm/sec
  Avg Pe: 1.54 ×10⁻⁶ cm/s and 1.539 ×10⁻⁶ cm/s
[2]; replicate n1, calculation section, 10µM, PBS pH 7.4/7.4, 6h
  LogPe (cm/sec) n1: -5.97 cm/sec
[2]; replicate n2, calculation section, 10µM, PBS pH 7.4/7.4, 6h
  LogPe (cm/sec) n2: -5.70 cm/sec
[2]; replicate n=1, 10µM (5% DMSO), PBS pH 7.4/7.4, 6h at room temperature, LC-MS/MS
  Pe (nm/sec) n=1: 10.8 nm/s and 10.80 nm/s
[2]; replicate n=1, 10µM, PBS pH 7.4/7.4, 6h at room temperature
  % Recovery n=1: 37.96%
[2]; replicate n=2, 10µM (5% DMSO), PBS pH 7.4/7.4, 6h at room temperature, LC-MS/MS
  Pe (nm/sec) n=2: 20.0 nm/s and 19.97 nm/s
[2]; replicate n=2, 10µM, PBS pH 7.4/7.4, 6h at room temperature
  % Recovery n=2: 43.27%
LbDHODH; [9]
  IC50: > 100 µM
LbDHODH; [10]
  IC50: > 100 µM
LbDHODH; LbDHODH, 4-h preincubation
  IC50 4 h: inactive
LbDHODH; [11]
  activity at 100 µM: 90 ± 10%
LbDHODH; [12]
  activity at 100 µM: 60 ± 10%
[3]
  EC50: 5 ± 2 µM
[3]; Leishmania braziliensis
  EC50: 5.4 to 23 µM
[5]; [13]
  remaining at 1 h, 1 µM: 1%
[5]; [14]
  remaining at 1 h, 1 µM: 1.5%
[4]
  CC50 at 72 h: > 200 µM
